From patent publication US7651978B2, “Selective herbicides based on a substituted phenylsulphonylaminocarbonyl-triazolinone” (Arysta LifeScience North America, LLC, priority 1998, dated 2010)

Legend:
[1] = test system: Alopecurus; experiment: Pre-emergence test/greenhouse; type: in vivo; settings: 504 h, 30 g of ai./ha, after three weeks, read-out: degree of damage, Alopecurus
Experimental: (§1) Pre-Emergence Test/Greenhouse Solvent: 5 parts by weight of acetone Emulsifier: 1 part by weight of alkylaryl polyglycol ether To produce a suitable preparation of active compound, 1 part by weight of active compound is mixed with the stated amount of solvent, the stated amount of emulsifier is added and the concentrate is diluted with water to the desired concentration. Seeds of the test plants are sown in normal soil. After about 24 hours, the soil is sprayed with the preparation of active compound such that the particular amount of active compound desired is applied per unit area. The concentration of the spray liquor is chosen so that the particular amount of active compound desired is applied in 500 ml of water per hectare. After three weeks, the degree of damage to the plants is assessed in % damage in comparison to the development of the untreated control. The figures denote: • 0%=no effect (like untreated control) • 100%=total destruction

[2] = test system: Avena; experiment: Pre-emergence test/greenhouse; type: in vivo; settings: 504 h, 30 g of ai./ha, after three weeks, read-out: degree of damage, Avena
Experimental: as §1

[3] = test system: Bromus; experiment: Pre-emergence test/greenhouse; type: in vivo; settings: 30 g of ai./ha, after three weeks
Experimental: as §1

[4] = test system: Digitaria; experiment: Pre-emergence test/greenhouse; type: in vivo; settings: 30 g of ai./ha, after three weeks
Experimental: as §1

[5] = test system: Echinochloa; experiment: Pre-emergence test/greenhouse; type: in vivo; settings: 30 g of ai./ha, after three weeks
Experimental: as §1

[6] = test system: Matricaria; experiment: Pre-emergence test/greenhouse; type: in vivo; settings: 30 g of ai./ha, after three weeks
Experimental: as §1

[7] = test system: Polygonum; experiment: Pre-emergence test/greenhouse; type: in vivo; settings: 30 g of ai./ha, after three weeks
Experimental: as §1

[8] = test system: Setaria; experiment: Pre-emergence test/greenhouse; type: in vivo; settings: 30 g of ai./ha, after three weeks
Experimental: as §1

[9] = test system: Wheat; experiment: Pre-emergence test/greenhouse; type: in vivo; settings: pre-emergence; for degree of damage, Wheat: 30 g of ai./ha, after three weeks, 0%=no effect, 100%=total destruction
Experimental: as §1

[10] = test system: Agropyron; experiment: Post-emergence test/greenhouse; type: in vivo; settings: 60 g ai./ha, after three weeks
Experimental: (§2) Post-Emergence Test/Greenhouse [table] To produce a suitable preparation of active compound, 1 part by weight of active compound is mixed with the stated amount of solvent, the stated amount of emulsifier is added and the concentrate is diluted with water to the desired concentration. Test plants which have a height of 5-15 cm are sprayed with the preparation of active compound such that the particular amounts of active compound desired are applied per unit area. The concentration of the spray liquor is chosen so that the particular amounts of active compound desired are applied in 500 ml of water/ha. After three weeks, the degree of damage to the plants is assessed in % damage in comparison to the development of the untreated control. The figures denote: • 0%=no effect (like untreated control) • 100%=total destruction

[11] = test system: Alopecurus; experiment: Post-emergence test/greenhouse; type: in vivo; settings: 504 h, 60 g ai./ha, after three weeks, read-out: degree of damage, Alopecurus
Experimental: as §2

[12] = test system: Avena; experiment: Post-emergence test/greenhouse; type: in vivo; settings: 60 g ai./ha, after three weeks
Experimental: as §2

[13] = test system: Bromus; experiment: Post-emergence test/greenhouse; type: in vivo; settings: 60 g ai./ha, after three weeks
Experimental: as §2

[14] = test system: Lolium; experiment: Post-emergence test/greenhouse; type: in vivo; settings: 60 g ai./ha, after three weeks
Experimental: as §2

[15] = test system: Veronica; experiment: Post-emergence test/greenhouse; type: in vivo; settings: 60 g ai./ha, after three weeks
Experimental: as §2

[16] = test system: Wheat; experiment: Post-emergence test/greenhouse; type: in vivo; settings: post-emergence, 60 g ai./ha, after three weeks; 0%=no effect, 100%=total destruction
Experimental: as §2

[17] = test system: weeds, such as Alopecurus, Avena, Bromus, Digitaria, Echinochloa, Matricaria, Polygonum and Setaria; experiment: Pre-emergence test/greenhouse, summary over weeds; type: in vivo; settings: cf. Table A1
Experimental: Pre-Emergence Test/Greenhouse Solvent: 5 parts by weight of acetone Emulsifier: 1 part by weight of alkylaryl polyglycol ether To produce a suitable preparation of active compound, 1 part by weight of active compound is mixed with the stated amount of solvent, the stated amount of emulsifier is added and the concentrate is diluted with water to the desired concentration. Seeds of the test plants are sown in normal soil. After about 24 hours, the soil is sprayed with the preparation of active compound such that the particular amount of active compound desired is applied per unit area. The concentration of the spray liquor is chosen so that the particular amount of active compound desired is applied in 500 ml of water per hectare. After three weeks, the degree of damage to the plants is assessed in % damage in comparison to the development of the untreated control. […] Table A1). The considerable superiority of (I)-Na-salt over the comparative compound (G) is shown in Table A2 [“ai.”=“active ingredient”].

[18] = test system: weeds, such as Agropyron, Alopecurus, Avena, Bromus, Lolium, Setaria and Veronica; experiment: Post-emergence test/greenhouse, summary over weeds; type: in vivo; settings: cf. Table B1
Experimental: as §2, with “[…] A considerable superiority of (I)-Na-salt (at 125 g/ha) over the comparative compounds (G) and (H) (in each case at 250 g/ha!) is shown in Table B2.” for “The figures denote: • 0%=no effect (like untreated control) • 100%=total destruction”

[19] = test system: Setaria; experiment: Post-emergence test/greenhouse; type: in vivo; settings: 60 g ai./ha, after three weeks
Experimental: as §2

[20] = test system: Avena fatua; experiment: Post-emergence tests/outdoors (Example C, Canada); type: in vivo; settings: outdoors, 70 WP, 6 tests
Experimental: (§3) Post-Emergence Tests/Outdoors In addition to the comparative compounds (B) and (D), the sodium salt of the compound of the formula (I) was tested under outdoor conditions in the main cultivation areas of summer wheat in Canada against economically important weeds. The small-plot experiments were carried out on cultivated land under agricultural use. Areas with particularly extensive weed growth were chosen preferably. The active compounds were applied across the area by the spray method, with an average droplet size. To produce a useful preparation of active compound, the active compounds were formulated as 70 WP (70% w/w water-dispersible powder) and applied with customary amounts of water. Wetting of the plants was improved by addition of a surface-active substance (SAS) in the concentrations recommended by the respective manufacturer. To assess the crop compatibility, from 1 to 8 weeks after the treatment, plant growth inhibitions or […] of the leaf area were assessed in % damage in comparison to the development of the untreated control. At different intervals after the treatment, the herbicidal activity was assessed as % reduction in comparison to the untreated control, based on the weed development. The figures denote: • 0%=no damage of the crops or no herbicidal effect, • 100%=total destruction of the crops or the weeds.

[21] = test system: Fallopia convolvulus; experiment: Post-emergence tests/outdoors (Example C, Canada); type: in vivo; settings: outdoors, 70 WP, 5 tests
Experimental: as §3

[22] = test system: Setaria viridis; experiment: Post-emergence tests/outdoors (Example C, Canada); type: in vivo; settings: outdoors, 70 WP, 5 tests
Experimental: as §3

[23] = test system: Sinapis arvensis; experiment: Post-emergence tests/outdoors (Example C, Canada); type: in vivo; settings: outdoors, 70 WP, 5 tests
Experimental: as §3

[24] = test system: Thlaspi arvense; experiment: Post-emergence tests/outdoors (Example C, Canada); type: in vivo; settings: outdoors, 70 WP, 3 tests
Experimental: as §3

[25] = test system: wheat; experiment: Post-emergence tests/outdoors (Example C, Canada), crop damage; type: in vivo, summer wheat; settings: outdoors, 70 WP, 9 tests, 1 to 8 weeks after treatment
Experimental: as §3

[26] = 15 g of a.i./ha + SAS (Canplus 411)
[27] = 30 g of a.i./ha + SAS (Canplus 411)

| Structure (SMILES) | pest or weed control at 30 g/ha [1] [%] | pest or weed control at 30 g/ha [2] [%] | degree of damage, Bromus [3] [%] | degree of damage, Digitaria [4] [%] | degree of damage, Echinochloa [5] [%] | degree of damage, Matricaria [6] [%] | degree of damage, Polygonum [7] [%] | degree of damage, Setaria [8] [%] | degree of damage, Wheat [9] [%] | degree of damage, Agropyron [10] [%] | pest or weed control at 60 g/ha [11] [%] | degree of damage, Avena [12] [%] | degree of damage, Bromus [13] [%] | degree of damage, Lolium [14] [%] | degree of damage, Veronica [15] [%] | degree of damage, Wheat [16] [%] | herbicidal activity (in words, compared with (I)-Na-salt) [17] | herbicidal activity (in words, compared with (I)-Na-salt) [18] | degree of damage, Setaria [19] [%] | further results |
| --- | --- | --- | --- | --- | --- | --- | --- | --- | --- | --- | --- | --- | --- | --- | --- | --- | --- | --- | --- | --- |
| COc1nn(C(=O)NS(=O)(=O)c2ccccc2OC(F)F)c(=O)n1C [(E), 2-(2-Difluoromethoxy-phenylsulphonylaminocarbonyl)-4-methyl-5-methoxy-2,4-dihydro-3H-1,2,4-triazol-3-one] | 50 | 30 | 0 | 40 | 30 | 0 | 60 | 80 | 0 | 60 | 20 | 70 | 0 | 20 | 30 | 0 | considerably weaker herbicidal activity | considerably weaker herbicidal activity |  |  |
| COn1c(C)nn(C(=O)NS(=O)(=O)c2ccccc2OC(F)(F)F)c1=O [(C), 2-(2-Trifluoromethoxy-phenylsulphonylaminocarbonyl)-4-methoxy-5-methyl-2,4-dihydro-3H-1,2,4-triazol-3-one] | 0 | 0 | 0 | 0 | 0 | 0 | 0 | 0 | 0 | 0 | 0 | 0 | 0 | 0 | 0 | 0 | considerably weaker herbicidal activity | considerably weaker herbicidal activity | 0 |  |
| COc1nn(C(=O)NS(=O)(=O)c2ccccc2C(F)(F)F)c(=O)n1C [(D), 2-(2-Trifluoromethyl-phenylsulphonylaminocarbonyl)-4-methyl-5-methoxy-2,4-dihydro-3H-1,2,4-triazol-3-one] | 70 | 50 |  | 80 |  | 30 | 70 |  | 0 |  |  |  |  |  | 0 | 0 | considerably weaker herbicidal activity | considerably weaker herbicidal activity |  | herbicidal effect (%), Avena fatua [20, 26]: 65%; herbicidal effect (%), Fallopia convolvulus [21, 26]: 70%; herbicidal effect (%), Setaria viridis [22, 26]: 81%; herbicidal effect (%), Sinapis arvensis [23, 26]: 95%; herbicidal effect (%), Thlaspi arvense [24, 26]: 95%; Crop damage (wheat) [25, 26]: 12% |
| CCOc1nn(C(=O)NS(=O)(=O)c2ccccc2OC(F)(F)F)c(=O)n1C [(B), 2-(2-Trifluoromethoxy-phenylsulphonylaminocarbonyl)-4-methyl-5-ethoxy-2,4-dihydro-3H-1,2,4-triazol-3-one] | 70 | 80 |  |  |  |  | 80 |  | 50 |  | 40 |  |  | 70 | 70 | 0 |  | considerably weaker herbicidal activity |  | compatibility with crop plants (wheat), in words ([9]; cf. Table A1): not compatible with wheat; herbicidal effect (%), Avena fatua [20, 27]: 69%; herbicidal effect (%), Fallopia convolvulus [21, 27]: 71%; herbicidal effect (%), Setaria viridis [22, 27]: 95%; herbicidal effect (%), Sinapis arvensis [23, 27]: 97%; herbicidal effect (%), Thlaspi arvense [24, 27]: 97%; Crop damage (wheat) [25, 27]: 5% |
| CCn1c(OC)nn(C(=O)NS(=O)(=O)c2ccccc2OC(F)(F)F)c1=O [(A), 2-(2-Trifluoromethoxy-phenylsulphonylaminocarbonyl)-4-ethyl-5-methoxy-2,4-dihydro-3H-1,2,4-triazol-3-one] | 20 | 0 | 40 | 0 | 50 | 0 | 0 | 60 | 0 | 0 | 0 | 0 | 40 | 0 |  | 0 | considerably weaker herbicidal activity | considerably weaker herbicidal activity | 40 |  |
